According to patent US6596728B1, “Substituted 1,3-diaryl-2-pyrid-2-yl-3-(pyrid-2-ylamino)propanol derivatives, process for their preparation, pharmaceuticals comprising these compounds and their use” (Aventis Pharma Deutschland GmbH, priority 1998, dated 2003):

Molecular target: T1, intestinal bile acid transportation system (Na+-dependent) in brush border membrane vesicles of the ileum (Oryctolagus cuniculus, UniProt Q28727)
T1 construct: Preparation of Brush Border Membrane Vesicles from the Ileum of Rabbits; from tissue; host or cells: brush border membrane vesicles from terminal ileum of male New Zealand rabbits
T1 sequence (Q28727 1-347): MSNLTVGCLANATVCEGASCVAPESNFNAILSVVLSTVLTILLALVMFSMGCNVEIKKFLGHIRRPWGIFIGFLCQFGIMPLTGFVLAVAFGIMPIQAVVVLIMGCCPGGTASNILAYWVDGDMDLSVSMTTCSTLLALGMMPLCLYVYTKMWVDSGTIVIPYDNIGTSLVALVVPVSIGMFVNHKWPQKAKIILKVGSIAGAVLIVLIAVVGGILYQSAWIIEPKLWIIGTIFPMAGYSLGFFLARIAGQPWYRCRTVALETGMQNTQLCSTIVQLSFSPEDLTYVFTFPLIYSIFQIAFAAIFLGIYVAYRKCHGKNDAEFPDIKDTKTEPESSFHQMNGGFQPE
Assay: Inhibition of Na+-dependent [3H]-taurocholate uptake in brush border membrane vesicles of the ileum of rabbits
Format: biochemical
Conditions: quotient of the IC50Na of the reference substance taurochenodeoxycholate (TCDC) and of the test substance, 50 μM taurocholate, rabbit ileum vesicles
Protocol: Biological testing of the compounds according to the present invention was carried out by determining the inhibition of [^3H]-taurocholate uptake in brush border membrane vesicles of the ileum of rabbits. The inhibition test was carried out as follows:
1. Preparation of Brush Border Membrane Vesicles from the Ileum of Rabbits
Brush border membrane vesicles from the intestinal cells of the small intestine were prepared by the so-called Mg^2+ precipitation method. Male New Zealand rabbits (2 to 2.5 kg body weight) were sacrificed by intravenous injection of 0.5 ml T61®, an aqueous solution of 2.5 mg tetracaine HCl, […] embutramide and 25 mg mebezonium iodide. The small intestine was removed and rinsed with ice-cold physiological saline solution. The terminal 7/10 of the small intestine (measured in the oral-rectal direction, i.e., the terminal ileum, which contains the active Na^+-dependent bile acid transportation system) was used for preparation of the brush border membrane vesicles. The intestines were frozen in plastic bags under nitrogen at −80° C. For preparation of the membrane vesicles, the frozen intestines were thawed at 30° C. in a water bath. The mucosa was scraped off and suspended in 60 ml of ice-cold 12 mM TRIS/HCl buffer (pH 7.1)/300 mM mannitol, 5 mM EGTA/10 mg/l of phenylmethylsulfonyl fluoride/1 mg/l of trypsin inhibitor from soybeans (32 U/mg)/0.5 mg/l of trypsin inhibitor from bovine lung (193 U/mg)/5 mg/l of bacitracin. After dilution to 300 ml with ice-cold distilled water, the mixture was homogenized with an Ultraturrax (18-rod, IKA Werk Staufen, Germany) for 3 minutes at 75% of the maximum output by cooling with ice. After addition of 3 ml of 1 M MgCl2 solution (final concentration 10 mM), the mixture was allowed to stand for exactly 1 minute at 0° C. The cell membranes aggregate by addition of Mg^2+ and precipitate, with the exception of the brush border membranes. After centrifugation at 3000×g (5000 rpm, SS-34 rotor) for 15 minutes, the precipitate was discarded land the supernatant, which contains the brush border membranes, was centrifuged at 48000×g (20000 rpm, SS-34 rotor) for 30 minutes. The supernatant was discarded, and the precipitate was rehomogenized in 60 ml of 12 mM TRIS/HCl buffer (pH 7.1)/60 mM mannitol, 5 mM EGTA with a Potter Elvejhem homogenizer (Braun, Melsungen, 900 rpm, 10 strokes). After addition of 0.1 ml of 1 M MgCl2 solution and incubation for 15 minutes at 0° C., centrifugation was again carried out at 3000×g for 15 minutes. The supernatant was then centrifuged again at 48000×x g (20000 rpm, SS-34 rotor) for 30 minutes. The precipitate was taken up in 30 ml of 10 mM TRIS/HEPES buffer (pH 7.4)/300 mM mannitol and resuspended homogeneously by 20 strokes in a Potter Elvejhem homogenizer at 1000 rpm. After centrifugation at 48000×g (20000 rpm, SS-34 rotor) for 30 minutes, the precipitate was taken up in 0.5 to 2 ml of TRIS/HEPES buffer (pH 7.4)/280 mM mannitol (final concentration 20 mg/ml) and resuspended with the aid of a Tuberculin syringe with a 27-gauge needle. The vesicles were either used for transportation investigations directly after preparation or stored at −196° C. in 4 mg portions in liquid nitrogen.
2. Inhibition of the Na^+-dependent [^3H]taurocholate Uptake in Brush Border Membrane Vesicles of the Ileum
The uptake of substrates in the brush border membrane vesicles described above was determined by means of the so-called membrane filtration technique. 10 μl of the vesicle suspension (100 μg of protein) were pipetted as drops onto the wall of a polystyrene incubation tube (11×70 mm) which contained the incubation medium with the corresponding ligands (90 μl). […]

Row | Compound | IC50Na-TCDC (μmol) / IC50Na-compound (μmol)
1 | O=C(CN1C(=O)c2ccccc2C1=O)Nc1ccccc1[C@@H](Nc1ccccn1)[C@H](c1ccccn1)[C@H](O)c1ccccc1 [Example 47] | 1.00
2 | CC(=O)Nc1nc(C)c(S(=O)(=O)Nc2ccccc2C(Nc2ccccn2)C(c2ccccn2)C(O)c2ccccc2)s1 (centres unmarked) [Example 93] | 1.10
3 | O=C(Cc1ccsc1)Nc1ccccc1[C@@H](Nc1ccccn1)[C@H](c1ccccn1)[C@H](O)c1ccccc1 [Example 41] | 0.61
4 | Cc1ccnc(SCC(=O)Nc2ccccc2[C@@H](Nc2ccccn2)[C@H](c2ccccn2)[C@H](O)c2ccccc2)n1 [Example 61] | 0.66
5 | O=C(CCC(=O)c1ccc(Cl)cc1)Nc1ccccc1[C@@H](Nc1ccccn1)[C@H](c1ccccn1)[C@H](O)c1ccccc1 [Example 36] | 0.36
6 | O=C(/C=C/c1cccs1)Nc1ccccc1[C@@H](Nc1ccccn1)[C@H](c1ccccn1)[C@H](O)c1ccccc1 [Example 53] | 0.46
7 | O=C(Cc1ccccc1C(F)(F)F)Nc1ccccc1[C@@H](Nc1ccccn1)[C@H](c1ccccn1)[C@H](O)c1ccccc1 [Example 38] | 0.38
8 | Cc1c(C)c(S(=O)(=O)Nc2ccccc2C(Nc2ccccn2)C(c2ccccn2)C(O)c2ccccc2)c(C)c2c1OC(C)(C)CC2 (centres unmarked) [Example 83] | 0.24
9 | O=C(COc1ccc(F)cc1)Nc1ccccc1[C@@H](Nc1ccccn1)[C@H](c1ccccn1)[C@H](O)c1ccccc1 [Example 44] | 1.05
10 | CCCCOc1ccc(S(=O)(=O)Nc2ccccc2C(Nc2ccccn2)C(c2ccccn2)C(O)c2ccccc2)cc1 (centres unmarked) [Example 87] | 0.84
11 | Cc1ccccc1OCC(=O)Nc1ccccc1[C@@H](Nc1ccccn1)[C@H](c1ccccn1)[C@H](O)c1ccccc1 [Example 45] | 1.03
12 | CC(C)(C)c1ccc(S(=O)(=O)Nc2ccccc2C(Nc2ccccn2)C(c2ccccn2)C(O)c2ccccc2)cc1 (centres unmarked) [Example 66] | 0.93
13 | O=S(=O)(Nc1ccccc1C(Nc1ccccn1)C(c1ccccn1)C(O)c1ccccc1)c1ccc(F)cc1 (centres unmarked) [Example 73] | 0.92
14 | COc1cc(/C=C/C(=O)Nc2ccccc2[C@@H](Nc2ccccn2)[C@H](c2ccccn2)[C@H](O)c2ccccc2)ccc1O [Example 52] | 1.11
15 | O=S(=O)(Nc1ccccc1C(Nc1ccccn1)C(c1ccccn1)C(O)c1ccccc1)c1ccc(Cl)s1 (centres unmarked) [Example 82] | 0.79
16 | CCCCCC#CC(=O)Nc1ccccc1[C@@H](Nc1ccccn1)[C@H](c1ccccn1)[C@H](O)c1ccccc1 [Example 60] | 0.62
17 | O=S(=O)(Nc1ccccc1C(Nc1ccccn1)C(c1ccccn1)C(O)c1ccccc1)c1cc(C(F)(F)F)cc(C(F)(F)F)c1 (centres unmarked) [Example 78] | 0.27
18 | C#CCCC(=O)Nc1ccccc1[C@@H](Nc1ccccn1)[C@H](c1ccccn1)[C@H](O)c1ccccc1 [Example 31] | 1.13

Row | Compound | IC50Na-TCDC (μmol) / IC50Na-compound (μmol)
19 | CCOCC(=O)Nc1ccccc1[C@@H](Nc1ccccn1)[C@H](c1ccccn1)[C@H](O)c1ccccc1 [Example 50] | 0.67
20 | O=[N+]([O-])c1ccccc1S(=O)(=O)Nc1ccccc1C(Nc1ccccn1)C(c1ccccn1)C(O)c1ccccc1 (centres unmarked) [Example 65] | 0.84
21 | N[C@@H](Cc1ccccc1)C(=O)N1CCC[C@H]1C(=O)Nc1ccccc1[C@@H](Nc1ccccn1)[C@H](c1ccccn1)[C@H](O)c1ccccc1 [Example 2c] | 1.06
22 | COc1ccc(CCC(=O)Nc2ccccc2[C@@H](Nc2ccccn2)[C@H](c2ccccn2)[C@H](O)c2ccccc2)cc1OC [Example 35] | 0.36
23 | CN(CC(=O)Nc1ccccc1[C@@H](Nc1ccccn1)[C@H](c1ccccn1)[C@H](O)c1ccccc1)C(=O)OC(C)(C)C [Example 49] | 0.86
24 | O=C(CSc1ncccn1)Nc1ccccc1[C@@H](Nc1ccccn1)[C@H](c1ccccn1)[C@H](O)c1ccccc1 [Example 56] | 1.15
25 | CS(=O)(=O)c1ccc(S(=O)(=O)Nc2ccccc2C(Nc2ccccn2)C(c2ccccn2)C(O)c2ccccc2)cc1 (centres unmarked) [Example 94] | 0.40
26 | O=C(Cc1cccs1)Nc1ccccc1[C@@H](Nc1ccccn1)[C@H](c1ccccn1)[C@H](O)c1ccccc1 [Example 34] | 0.81
27 | CCOC(=O)/C=C/C(=O)Nc1ccccc1[C@@H](Nc1ccccn1)[C@H](c1ccccn1)[C@H](O)c1ccccc1 [Example 57] | 0.79
28 | O=C(O)c1ccc(S(=O)(=O)Nc2ccccc2C(Nc2ccccn2)C(c2ccccn2)C(O)c2ccccc2)cc1 (centres unmarked) [Example 91] | 0.92
29 | O=S(=O)(Nc1ccccc1C(Nc1ccccn1)C(c1ccccn1)C(O)c1ccccc1)c1cc(Cl)cc(Cl)c1O (centres unmarked) [Example 74] | 0.70
30 | O=C(Cc1ccc(Cl)cc1)Nc1ccccc1[C@@H](Nc1ccccn1)[C@H](c1ccccn1)[C@H](O)c1ccccc1 [Example 33] | 0.52
31 | N#CC1(C(=O)Nc2ccccc2[C@@H](Nc2ccccn2)[C@H](c2ccccn2)[C@H](O)c2ccccc2)CC1 [Example 62] | 0.99
32 | CC(C)S(=O)(=O)Nc1ccccc1C(Nc1ccccn1)C(c1ccccn1)C(O)c1ccccc1 (centres unmarked) [Example 77] | 0.22
33 | O=C(CNC(=O)OCc1ccccc1)Nc1ccccc1[C@@H](Nc1ccccn1)[C@H](c1ccccn1)[C@H](O)c1ccccc1 [Example 64] | 0.39
34 | CC1(C)[C@@H]2CCC1(CS(=O)(=O)Nc1ccccc1C(Nc1ccccn1)C(c1ccccn1)C(O)c1ccccc1)C(=O)C2 (some centres unmarked) [Example 69] | 1.00
35 | CN(C)c1cccc2c(S(=O)(=O)Nc3ccccc3C(Nc3ccccn3)C(c3ccccn3)C(O)c3ccccc3)cccc12 (centres unmarked) [Example 89] | 0.90
